For one molecule, IC50 results are on record in ChEMBL document CHEMBL5537111, “Structure and function of SARS-CoV and SARS-CoV-2 main proteases and their inhibition: A comprehensive review” (Eur J Med Chem, 2023).

The nature of the experiment: Inhibition of SARS-CoV-2 3CL protease Q189A mutant by FRET assay. Also noted: species or system Severe acute respiratory syndrome coronavirus 2.

Molecules are shown by their SMILES.

`CC1(C)CCC(CN2CCN(c3ccc(C(=O)NS(=O)(=O)c4ccc(NCC5CCOCC5)c([N+](=O)[O-])c4)c(Oc4cnc5[nH]ccc5c4)c3)CC2)=C(c2ccc(Cl)cc2)C1` [VENETOCLAX]: the IC50 – broadly, the point on the concentration scale where inhibition reaches its midpoint – turned out to be 3.18 µM.
